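Growth conditions: 96-well plates. Treatment: test compound, 48 hours, 5 concentrations. Analysis: linear interpolation between bracketing concentrations; unreached endpoints set to highest concentration. TGI is the concentration that stops growth completely.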
Key:
Experiment in all cases: DTP human tumour cell line panel, 48 h
LOX IMVI melanoma = test system: LOX IMVI melanoma
SN12C renal = test system: SN12C renal
786-0 renal = test system: 786-0 renal
TK-10 renal = test system: TK-10 renal
NCI-H460 lung = test system: NCI-H460 lung
RXF 393 renal = test system: RXF 393 renal
SNB-19 CNS = test system: SNB-19 CNS
MDA-MB-435 = test system: MDA-MB-435
NCI-H23 lung = test system: NCI-H23 lung
MALME-3M melanoma = test system: MALME-3M melanoma
MDA-N = test system: MDA-N
KM12 colon = test system: KM12 colon
OVCAR-5 ovarian = test system: OVCAR-5 ovarian
NCI-H226 lung = test system: NCI-H226 lung
UACC-257 melanoma = test system: UACC-257 melanoma
SK-MEL-28 melanoma = test system: SK-MEL-28 melanoma
NCI/ADR-RES ovarian = test system: NCI/ADR-RES ovarian
HCT-15 colon = test system: HCT-15 colon
OVCAR-8 ovarian = test system: OVCAR-8 ovarian
UACC-62 melanoma = test system: UACC-62 melanoma
UO-31 renal = test system: UO-31 renal
OVCAR-4 ovarian = test system: OVCAR-4 ovarian
DU-145 prostate = test system: DU-145 prostate
HCC-2998 colon = test system: HCC-2998 colon
MDA-MB-231 breast = test system: MDA-MB-231 breast
K-562 leukemia = test system: K-562 leukemia
COLO 205 colon = test system: COLO 205 colon
HOP-62 NSCLC = test system: HOP-62 NSCLC
SF-268 CNS = test system: SF-268 CNS
MOLT-4 leukemia = test system: MOLT-4 leukemia
HS 578T breast = test system: HS 578T breast
HT29 colon = test system: HT29 colon
PC-3 prostate = test system: PC-3 prostate
SK-MEL-2 melanoma = test system: SK-MEL-2 melanoma
SF-295 CNS = test system: SF-295 CNS
SW-620 colon = test system: SW-620 colon
MCF7 breast = test system: MCF7 breast
U251 CNS = test system: U251 CNS
M14 melanoma = test system: M14 melanoma
ACHN renal = test system: ACHN renal
SK-OV-3 ovarian = test system: SK-OV-3 ovarian
BT-549 breast = test system: BT-549 breast
SK-MEL-5 melanoma = test system: SK-MEL-5 melanoma
CCRF-CEM leukemia = test system: CCRF-CEM leukemia
T-47D breast = test system: T-47D breast
IGROV1 ovarian = test system: IGROV1 ovarian
HCT-116 colon = test system: HCT-116 colon
OVCAR-3 ovarian = test system: OVCAR-3 ovarian
SNB-75 CNS = test system: SNB-75 CNS
A498 renal = test system: A498 renal
NCI-H522 lung = test system: NCI-H522 lung
HL-60(TB) leukemia = test system: HL-60(TB) leukemia
SF-539 CNS = test system: SF-539 CNS
A549 NSCLC = test system: A549 NSCLC
CAKI-1 renal = test system: CAKI-1 renal
RPMI-8226 leukemia = test system: RPMI-8226 leukemia
EKVX NSCLC = test system: EKVX NSCLC
HOP-92 NSCLC = test system: HOP-92 NSCLC

SMILES: CC1=C(\C=C/C(C)=C/C=C/C(C)=C/C=C/C=C(C)\C=C\C=C(C)/C=C/C2=C(C)CCCC2(C)C)C(C)(C)CCC1
- TGI (LOX IMVI melanoma): > 100 µM
- TGI (SN12C renal): > 100 µM
- TGI (786-0 renal): > 100 µM
- TGI (TK-10 renal): > 100 µM
- TGI (NCI-H460 lung): > 100 µM
- TGI (RXF 393 renal): > 100 µM
- TGI (SNB-19 CNS): > 100 µM
- TGI (MDA-MB-435): > 100 µM
- TGI (NCI-H23 lung): > 100 µM
- TGI (MALME-3M melanoma): > 100 µM
- TGI (MDA-N): > 100 µM
- TGI (KM12 colon): > 100 µM
- TGI (OVCAR-5 ovarian): > 100 µM
- TGI (NCI-H226 lung): > 100 µM
- TGI (UACC-257 melanoma): > 100 µM
- TGI (SK-MEL-28 melanoma): > 100 µM
- TGI (NCI/ADR-RES ovarian): > 100 µM
- TGI (HCT-15 colon): > 100 µM
- TGI (OVCAR-8 ovarian): > 100 µM
- TGI (UACC-62 melanoma): > 100 µM
- TGI (UO-31 renal): > 100 µM
- TGI (OVCAR-4 ovarian): > 100 µM
- TGI (DU-145 prostate): > 100 µM
- TGI (HCC-2998 colon): > 100 µM
- TGI (MDA-MB-231 breast): > 100 µM
- TGI (K-562 leukemia): > 100 µM
- TGI (COLO 205 colon): > 100 µM
- TGI (HOP-62 NSCLC): > 100 µM
- TGI (SF-268 CNS): > 100 µM
- TGI (MOLT-4 leukemia): > 100 µM
- TGI (HS 578T breast): > 100 µM
- TGI (HT29 colon): > 100 µM
- TGI (PC-3 prostate): > 100 µM
- TGI (SK-MEL-2 melanoma): > 100 µM
- TGI (SF-295 CNS): > 100 µM
- TGI (SW-620 colon): > 100 µM
- TGI (MCF7 breast): > 100 µM
- TGI (U251 CNS): > 100 µM
- TGI (M14 melanoma): > 100 µM
- TGI (ACHN renal): > 100 µM
- TGI (SK-OV-3 ovarian): > 100 µM
- TGI (BT-549 breast): > 100 µM
- TGI (SK-MEL-5 melanoma): > 100 µM
- TGI (CCRF-CEM leukemia): > 100 µM
- TGI (T-47D breast): > 100 µM
- TGI (IGROV1 ovarian): > 100 µM
- TGI (HCT-116 colon): 71.9 µM
- TGI (OVCAR-3 ovarian): > 100 µM
- TGI (SNB-75 CNS): > 100 µM
- TGI (A498 renal): > 100 µM
- TGI (NCI-H522 lung): > 100 µM

SMILES: N#CC1=C(N)OC2=C(CCCc3ccc([N+](=O)[O-])cc32)C1c1ccc(Cl)cc1 (centres undefined)
- TGI (LOX IMVI melanoma): 44.5 µM
- TGI (SN12C renal): 6.78 µM
- TGI (786-0 renal): 23.9 µM
- TGI (TK-10 renal): > 100 µM
- TGI (NCI-H460 lung): 15.7 µM
- TGI (RXF 393 renal): 19.5 µM
- TGI (SNB-19 CNS): > 100 µM
- TGI (MDA-MB-435): 65.5 µM
- TGI (NCI-H23 lung): 47.7 µM
- TGI (MALME-3M melanoma): 31.4 µM
- TGI (HL-60(TB) leukemia): 7.26 µM
- TGI (MDA-N): 39.6 µM
- TGI (KM12 colon): > 100 µM
- TGI (OVCAR-5 ovarian): > 100 µM
- TGI (NCI-H226 lung): 76.3 µM
- TGI (UACC-257 melanoma): > 100 µM
- TGI (SK-MEL-28 melanoma): > 100 µM
- TGI (NCI/ADR-RES ovarian): 78.1 µM
- TGI (HCT-15 colon): > 100 µM
- TGI (OVCAR-8 ovarian): 62.6 µM
- TGI (UACC-62 melanoma): 20.2 µM
- TGI (UO-31 renal): > 100 µM
- TGI (SF-539 CNS): 29.5 µM
- TGI (OVCAR-4 ovarian): 28.3 µM
- TGI (DU-145 prostate): 63.2 µM
- TGI (HCC-2998 colon): 52.3 µM
- TGI (MDA-MB-231 breast): > 100 µM
- TGI (K-562 leukemia): > 100 µM
- TGI (COLO 205 colon): > 100 µM
- TGI (A549 NSCLC): > 100 µM
- TGI (HOP-62 NSCLC): > 100 µM
- TGI (SF-268 CNS): > 100 µM
- TGI (MOLT-4 leukemia): 93.1 µM
- TGI (CAKI-1 renal): > 100 µM
- TGI (HS 578T breast): 88.8 µM
- TGI (HT29 colon): > 100 µM
- TGI (RPMI-8226 leukemia): 32 µM
- TGI (PC-3 prostate): > 100 µM
- TGI (SK-MEL-2 melanoma): 54.7 µM
- TGI (SF-295 CNS): > 100 µM
- TGI (SW-620 colon): > 100 µM
- TGI (MCF7 breast): 22.6 µM
- TGI (U251 CNS): 28 µM
- TGI (M14 melanoma): 49.8 µM
- TGI (ACHN renal): 46.5 µM
- TGI (SK-OV-3 ovarian): > 100 µM
- TGI (BT-549 breast): 75.3 µM
- TGI (SK-MEL-5 melanoma): 15.7 µM
- TGI (CCRF-CEM leukemia): > 100 µM
- TGI (T-47D breast): 53.9 µM
- TGI (IGROV1 ovarian): > 100 µM
- TGI (HCT-116 colon): 12.5 µM
- TGI (OVCAR-3 ovarian): 29.4 µM
- TGI (EKVX NSCLC): 71.7 µM
- TGI (SNB-75 CNS): > 100 µM
- TGI (A498 renal): 35.5 µM
- TGI (NCI-H522 lung): 31.7 µM
- TGI (HOP-92 NSCLC): > 100 µM
